This is an account of results in ChEMBL document CHEMBL5365492 (J Med Chem, 2023).

Square brackets hold non-standard residues; d marks the D form. Peptide text beside a SMILES is read from it. NMeL = CN[C@@H](CC(C)C)C(=O)O; NMeV = CN[C@H](C(=O)O)C(C)C; Nva = CCC[C@H](N)C(=O)O; Sar = CNCC(=O)O

The nature of data set [1]: Permeability of compound at 10 uM incubated for 18 hrs by PAMPA assay. It counts as ADME. The following applies: read-out: permeability.
The nature of data set [2]: Permeability in human Caco-2 cells at 10 uM incubated for 2 hrs by LC-MS analysis. It counts as ADME, cell-based. The following applies: read-out: permeability.
The nature of data set [3]: 1,9-decadiene-water partition coefficient, logD of compound at pH 7.4 at 10 uM incubated for 30 mins by LC-MS analysis. It counts as physicochemical.

With `CCCC[C@@H]1NC(=O)[C@H](CC(C)C)N(C)C(=O)[C@H](CC(C)C)N(C)C(=O)[C@@H](C)NC(=O)[C@H](C)NC(=O)[C@H](CC(C)C)N(C)C(=O)[C@H](C(C)C)NC(=O)[C@H](CC(C)C)N(C)C(=O)CN(C)C(=O)[C@H](CCC)NC(=O)[C@H]([C@@H](C)O)N(C)C1=O`, in data set [1], the Papp at 18 h, 10 µM worked out at 5.2 ×10⁻⁶ cm/s. The Papp at 2 h, 10 µM in data set [2] is 3 ×10⁻⁶ cm/s. Besides, the logD hydrocarbon water at 0.5 h, 10 µM in data set [3] was determined as 2.59.
In data set [3], `C/C=C/C[C@@H](C)[C@@H](OC(C)=O)[C@H]1C(=O)N[C@@H](CC)C(=O)N(C)CC(=O)N(C)[C@@H](CC(C)C)C(=O)N[C@@H](C(C)C)C(=O)N(C)[C@@H](CC(C)C)C(=O)N[C@@H](C)C(=O)N[C@H](C)C(=O)N(C)[C@@H](CC(C)C)C(=O)N(C)[C@@H](CC(C)C)C(=O)N(C)[C@@H](C(C)C)C(=O)N1C` returned a logD hydrocarbon water at 0.5 h, 10 µM of 5.17.
Regarding `CCC[C@@H]1NC(=O)[C@H](CC(C)C)N(C)C(=O)[C@H](C(C)C)N(C)C(=O)[C@H](CC(C)C)N(C)C(=O)[C@H](CC(C)C)N(C)C(=O)[C@@H](C)NC(=O)[C@H](C)NC(=O)[C@H](CC(C)C)N(C)C(=O)[C@H](C(C)C)NC(=O)[C@H](CC(C)C)N(C)C(=O)CN(C)C1=O` (cyclo(A[dA][NMeL][NMeL][NMeV][NMeL][Nva][Sar][NMeL]V[NMeL])), the Papp at 18 h, 10 µM in data set [1] was 0.6 ×10⁻⁶ cm/s. In addition, in data set [2], the Papp at 2 h, 10 µM turned out to be 4.1 ×10⁻⁶ cm/s. The logD hydrocarbon water at 0.5 h, 10 µM in data set [3] came to 4.93.
For the molecule `CCC[C@@H]1NC(=O)[C@H]([C@H](O)C(C)C)N(C)C(=O)[C@H](C(C)C)NC(=O)[C@H](CC(C)C)N(C)C(=O)[C@H](CC(C)C)N(C)C(=O)[C@@H](C)NC(=O)[C@H](C)NC(=O)[C@H](CC(C)C)N(C)C(=O)[C@H](C(C)C)NC(=O)[C@H](CC(C)C)N(C)C(=O)CN(C)C1=O`, the Papp at 2 h, 10 µM in data set [2] is 6.8 ×10⁻⁶ cm/s. In data set [3], this molecule yielded a logD hydrocarbon water at 0.5 h, 10 µM of 4.6.
Turning to `CCC[C@@H]1NC(=O)[C@H]([C@@H](C)O)N(C)C(=O)[C@H](C(C)C)NC(=O)[C@H](CC(C)C)N(C)C(=O)[C@H](CC(C)C)N(C)C(=O)[C@@H](C)NC(=O)[C@H](C)NC(=O)[C@H](CC(C)C)N(C)C(=O)[C@H](C(C)C)NC(=O)[C@H](CC(C)C)N(C)C(=O)CN(C)C1=O`, the Papp at 18 h, 10 µM in data set [1] stood at 0.8 ×10⁻⁶ cm/s. Also, the Papp at 2 h, 10 µM in data set [2] was 8.7 ×10⁻⁶ cm/s. Besides, the logD hydrocarbon water at 0.5 h, 10 µM in data set [3] came out at 3.12.
Turning to `CCC[C@@H]1NC(=O)[C@H]([C@@H](C)O)N(C)C(=O)[C@H](CC(C)C)NC(=O)[C@H](CC(C)C)N(C)C(=O)[C@H](CC(C)C)N(C)C(=O)[C@@H](C)NC(=O)[C@H](C)NC(=O)[C@H](CC(C)C)N(C)C(=O)[C@H](C(C)C)NC(=O)[C@H](CC(C)C)N(C)C(=O)CN(C)C1=O`, the Papp at 18 h, 10 µM in data set [1] was 7.7 ×10⁻⁶ cm/s. Also, the Papp at 2 h, 10 µM in data set [2] is 2.6 ×10⁻⁶ cm/s. This molecule also showed a logD hydrocarbon water at 0.5 h, 10 µM in data set [3] of 2.52.
Turning to `NC(=O)N1c2ccccc2C=Cc2ccccc21` [CARBAMAZEPINE], in data set [1], the Papp at 18 h, 10 µM is 9.5 ×10⁻⁶ cm/s. In data set [3], this molecule gave a logD hydrocarbon water at 0.5 h, 10 µM of 0.13.
`CCC[C@@H]1NC(=O)[C@H]([C@@H](C)O)N(C)C(=O)[C@H](C(C)C)N(C)C(=O)CN(CCN(C(C)C)C(C)C)C(=O)[C@H](CC(C)C)N(C)C(=O)[C@@H](C)NC(=O)[C@H](C)NC(=O)[C@H](CC(C)C)N(C)C(=O)[C@H](C(C)C)NC(=O)[C@H](CC(C)C)N(C)C(=O)CN(C)C1=O.O=C(O)C(F)(F)F`: the Papp at 2 h, 10 µM in data set [2] stood at 0.07 ×10⁻⁶ cm/s. Also, in data set [3], the logD hydrocarbon water at 0.5 h, 10 µM was found to be 0.13.
Take `CCC[C@@H]1NC(=O)[C@H](CC)N(C)C(=O)[C@H](C(C)C)N(C)C(=O)[C@H](CC(C)C)N(C)C(=O)[C@H](CC(C)C)N(C)C(=O)[C@@H](C)NC(=O)[C@H](C)NC(=O)[C@H](CC(C)C)N(C)C(=O)[C@H](C(C)C)NC(=O)[C@H](CC(C)C)N(C)C(=O)CN(C)C1=O`: in data set [1], the Papp at 18 h, 10 µM came out at 2 ×10⁻⁶ cm/s. Besides, the Papp at 2 h, 10 µM in data set [2] came out at 6.4 ×10⁻⁶ cm/s. In data set [3], this molecule gave a logD hydrocarbon water at 0.5 h, 10 µM of 3.58.
For `CCC[C@@H]1NC(=O)[C@H]([C@@H](C)O)N(C)C(=O)[C@H](C)NC(=O)[C@H](CC(C)C)N(C)C(=O)[C@H](CC(C)C)N(C)C(=O)[C@@H](C)NC(=O)[C@H](C)NC(=O)[C@H](CC(C)C)N(C)C(=O)[C@H](C(C)C)NC(=O)[C@H](CC(C)C)N(C)C(=O)CN(C)C1=O` the same measures were 0.3 ×10⁻⁶ cm/s, 0.3 ×10⁻⁶ cm/s and 1.45.
For `CCC[C@@H]1NC(=O)[C@H]([C@@H](C)O)N(C)C(=O)[C@H]([C@@H](C)CC)NC(=O)[C@H](CC(C)C)N(C)C(=O)[C@H](CC(C)C)N(C)C(=O)[C@@H](C)NC(=O)[C@H](C)NC(=O)[C@H](CC(C)C)N(C)C(=O)[C@H](C(C)C)NC(=O)[C@H](CC(C)C)N(C)C(=O)CN(C)C1=O` the same measures were 7.5 ×10⁻⁶ cm/s, 2.2 ×10⁻⁶ cm/s and 2.58.
Consider `CCC[C@@H]1NC(=O)[C@H]([C@H](O)C(C)C)N(C)C(=O)[C@H](C(C)C)N(C)C(=O)[C@H](CC(C)C)N(C)C(=O)[C@H](CC(C)C)N(C)C(=O)[C@@H](C)NC(=O)[C@H](C)NC(=O)[C@H](CC(C)C)N(C)C(=O)[C@H](C(C)C)NC(=O)[C@H](CC(C)C)N(C)C(=O)CN(C)C1=O`, for which the Papp at 18 h, 10 µM in data set [1] turned out to be 9.2 ×10⁻⁶ cm/s. Besides, the Papp at 2 h, 10 µM in data set [2] turned out to be 18.6 ×10⁻⁶ cm/s. The same molecule displayed a logD hydrocarbon water at 0.5 h, 10 µM in data set [3] of 3.35.
In the case of `CC(C)NCC(O)COc1cccc2ccccc12` (configuration not stated) [PROPRANOLOL], the Papp at 2 h, 10 µM in data set [2] is 32 ×10⁻⁶ cm/s.
Regarding `CCC[C@@H]1NC(=O)[C@H]([C@@H](C)O)N(C)C(=O)[C@H](C(C)C)N(C)C(=O)[C@H](CC(C)C)N(C)C(=O)[C@H](CC(C)C)N(C)C(=O)[C@@H](C)NC(=O)[C@H](C)NC(=O)[C@H](CC(C)C)N(C)C(=O)[C@H](C(C)C)NC(=O)[C@H](CC(C)C)N(C)C(=O)CN(C)C1=O`, the Papp at 18 h, 10 µM in data set [1] is 6.6 ×10⁻⁶ cm/s. Besides, the Papp at 2 h, 10 µM in data set [2] is 3 ×10⁻⁶ cm/s. Further, the logD hydrocarbon water at 0.5 h, 10 µM in data set [3] was 2.12.
`CCC[C@@H]1NC(=O)[C@H]([C@@H](C)O)N(C)C(=O)[C@H](C(C)C)N(C)C(=O)CN(CC[N+](CC)(CC)CC)C(=O)[C@H](CC(C)C)N(C)C(=O)[C@@H](C)NC(=O)[C@H](C)NC(=O)[C@H](CC(C)C)N(C)C(=O)[C@H](C(C)C)NC(=O)[C@H](CC(C)C)N(C)C(=O)CN(C)C1=O.O=C([O-])C(F)(F)F`: the Papp at 2 h, 10 µM in data set [2] amounted to 0.35 ×10⁻⁶ cm/s. Also, the logD hydrocarbon water at 0.5 h, 10 µM in data set [3] was -2.44.
